Like-named read-outs stand apart in the source and are kept apart here.
Assays:
sigma-1 receptor = biological target: T1, sigma-1 receptor (Cavia porcellus, UniProt Q60492); experiment: Sigma-1 binding assay ([3H](+)-pentazocine); details: guinea pig brain membranes; for IC50: [3H](+)-pentazocine 2.4 nM, Table I; for inhibition at 0.01 µM: inhibition % at 10 nM, [3H](+)-pentazocine, Table II, read-out: Sigma 1 Inhib. %
T1 construct: their whole brains (without cerebellum) were rapidly removed and homogenized; from tissue; host or cells: guinea pig (male Hartley) whole brain without cerebellum, membrane homogenate
Description: (§1) Sigma-1 and Sigma-2 Binding Assay Methods
(§2) Compounds of the present inventions were tested for selective binding to the sigma-1 receptor and sigma-2 receptor as modified from Chaki et al. Eur. J. Pharmacol. 1994, 251, R1. and Akunne et al., Neuropharmacology, 1997, 36(1), 51.
(§3) Tissue Homogenate Preparation for Sigma-1 Binding Assay and Sigma-2 Binding Assay
(§4) Male Hartley guinea pigs each weighing 300–400 g were used in sigma subtype binding assay. Guinea pigs were killed by decapitation and their whole brains (without cerebellum) were rapidly removed and homogenized in 25 volumes(W/V) of ice-cold 50 mM Tris-HCl buffer(pH 7.4 buffer for sigma-1 binding assay and pH 8.0 buffer for sigma-2 binding assay). The homogenate was centrifuged in 48,000×g for 10 min at 4° C. The supernatant was discarded and the resulting pellets were resuspended in the sane volume of buffer and recentrifuged as described above. The pellets were resuspended and washed twice more in the same manner as described above. The final pellets were resuspended in 10 volumes(W/V) of ice-cold 50 mM Tris-HCl buffer to enable distribution of 2 ml aliquot in microcentrifuge tube, which were used immediately or kept at −80° C. for no more than 1 month before use.
Sigma-1 Binding Assay ([^3H](+)pentazocine)
The sigma-1 selective binding assay was performed using [^3H](+)-pentazocine as the radioligand (2.4 nM final concentration unless otherwise specified) and approximately […] of guinea pig brain membranes in a final volume of […] of 50 mM TRISHCl, pH7.4. Non-specific binding was determined in the presence of […]. For the standard equilibrium assay, the mixtures were incubated for 2 hours at 25°, and rapidly filtered over Whatman GF/C glass fiber filters, followed by three 4.5 ml rinses with ice-cold incubation buffer. The filters were placed in counting vials and 4 ml scintillation solution. The vials were counted in a Beckman scintillation counter.
(§5) IC50 values for sigma-1 or -2 binding assay were calculated using KELL RADLIG v.6.0.5.

sigma-2 receptor = biological target: T2, sigma-2 receptor (Cavia porcellus, UniProt H0V073); experiment: Sigma-2 binding assay ([3H]DTG in the presence of (+)-SKF10047); details: guinea pig brain membranes, read-out: Sigma 2 Inhib. %
T2 construct: their whole brains (without cerebellum) were rapidly removed and homogenized; from tissue; host or cells: guinea pig (male Hartley) whole brain without cerebellum, membrane homogenate
T2 sequence (H0V073 1-176): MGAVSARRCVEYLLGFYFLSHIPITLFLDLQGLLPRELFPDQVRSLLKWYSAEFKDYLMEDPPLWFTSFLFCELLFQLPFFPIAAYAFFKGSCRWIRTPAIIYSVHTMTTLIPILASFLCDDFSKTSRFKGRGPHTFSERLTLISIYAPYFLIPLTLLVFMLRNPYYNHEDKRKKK
Description: as §1, §2, §3, §4
Sigma-2 Binding Assay([^3H]DTG)
The Sigma-2 selective binding assay was performed using 3.6 nM[^3H]DTG as the radioligand in the presence of 200 nM (+)-SKF10047 to block the Sigma-1 sites, with […] of guinea pig brain membranes in a total volume of 0.5 ml of 50 mM TRIS-HCl, pH8.0. Non-specific binding was determined in the presence of […]. Incubation condition and other manipulations were as described above for sigma-1 binding assay.
as §5

[1] = Inhibition % at 10 nM, [3H]DTG 3.6 nM, Table I
[2] = inhibition % at 10 nM, [3H]DTG, Table II

T1 sequence (Q60492 whole entry): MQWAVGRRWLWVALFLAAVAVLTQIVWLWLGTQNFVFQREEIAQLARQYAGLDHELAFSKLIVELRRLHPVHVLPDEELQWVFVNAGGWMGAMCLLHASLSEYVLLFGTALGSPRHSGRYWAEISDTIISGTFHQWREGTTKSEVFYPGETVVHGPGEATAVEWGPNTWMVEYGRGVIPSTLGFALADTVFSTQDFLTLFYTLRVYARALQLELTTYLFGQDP

| Structure (SMILES) | IC50 (sigma-1 receptor) [nM] | inhibition at 0.01 µM (sigma-2 receptor; [1]) [%] | inhibition at 0.01 µM (sigma-1 receptor) [%] | inhibition at 0.01 µM (sigma-2 receptor; [2]) [%] |
| --- | --- | --- | --- | --- |
| CC(C)(C)c1ccc(CC(N)CN2CCCCCC2)cc1 (stereo not shown) | 2.1 | 55.7 |  |  |
| NC(Cc1ccc(C(F)(F)F)cc1)CN1CCCCCC1 (stereo not shown) | 2 | 43.9 |  |  |
| NC(Cc1ccc(Cl)cc1)CN1CCCCCC1 (stereo not shown) | 13.9 | 36.8 |  |  |
| NC(Cc1ccc(Cl)c(Cl)c1)CN1CCCCCC1 (stereo not shown) | 12.1 | 12.5 |  |  |
| CN(C(=O)Cc1ccc(Cl)c(Cl)c1)C(Cc1ccc(C(C)(C)C)cc1)CN1CCCCCC1 (stereo not shown) | 35.7 | 51.4 |  |  |
| CNC(Cc1ccc(C(C)(C)C)cc1)CN1CCCCCC1 (stereo not shown) | 2.5 | 27.4 |  |  |
| CN(C)C(Cc1ccc(C(C)(C)C)cc1)CN1CCCCCC1 (stereo not shown) | 2.1 |  |  |  |
| CC(C)(C)c1ccc(CC(CN2CCCCCC2)NCc2ccccc2)cc1 (stereo not shown) | 10 |  |  |  |
| O=C(Cc1ccc(Cl)c(Cl)c1)NC(CCN1CCCCCC1)c1ccccc1 (stereo not shown) | 10.8 | 27.1 |  |  |
| Clc1ccc(CCNC(CCN2CCCCCC2)c2ccccc2)cc1Cl (stereo not shown) | 10.2 | 70.2 |  |  |
| NC(Cc1cccc(C(F)(F)F)c1)CN1CCCCCC1 (stereo not shown) |  |  | 42.9 | 31.3 |
| NC(Cc1c(Cl)cccc1Cl)CN1CCCCCC1 (stereo not shown) |  |  | 33.6 | 21.7 |
| NC(Cc1ccc(Cl)cc1Cl)CN1CCCCCC1 (stereo not shown) |  |  | 73.2 | 61 |
| NC(Cc1ccc(Cl)c(Cl)c1)CN1CCC(Cc2ccccc2)CC1 (stereo not shown) |  |  | 57.3 | 48.3 |
| O=CNC(Cc1ccc(Cl)c(Cl)c1)CN1CCC(Cc2ccccc2)CC1 (stereo not shown) |  |  | 71.9 | 39.9 |
| CC(C)(C)c1ccc(CC(N)CN2CCC(Cc3ccccc3)CC2)cc1 (stereo not shown) |  |  | 26.1 | 38.2 |
| CNC(Cc1ccc(Cl)c(Cl)c1)CN1CCC(Cc2ccccc2)CC1 (stereo not shown) |  |  | 66.1 | 72.7 |
| CC(C)(C)c1ccc(CC(CN2CCC(Cc3ccccc3)CC2)NC=O)cc1 (stereo not shown) |  |  | 52.7 | 6.1 |
| NC(Cc1ccc(Cl)cc1Cl)CN1CCC(Cc2ccccc2)CC1 (stereo not shown) |  |  | 56.9 | 48.3 |
| CNC(Cc1ccc(C(C)(C)C)cc1)CN1CCC(Cc2ccccc2)CC1 (stereo not shown) |  |  | 63.2 | 57.9 |
| O=CNC(Cc1ccc(Cl)cc1Cl)CN1CCC(Cc2ccccc2)CC1 (stereo not shown) |  |  | 74.5 | 24.3 |

| Structure (SMILES) | IC50 (sigma-1 receptor) [nM] | inhibition at 0.01 µM (sigma-2 receptor; [1]) [%] | inhibition at 0.01 µM (sigma-1 receptor) [%] | inhibition at 0.01 µM (sigma-2 receptor; [2]) [%] |
| --- | --- | --- | --- | --- |
| CNC(Cc1ccc(Cl)cc1Cl)CN1CCC(Cc2ccccc2)CC1 (stereo not shown) |  |  | 75.6 | 75 |
| O=CNC(Cc1ccc(Cl)c(Cl)c1)CN1CCCCCC1 (stereo not shown) |  |  | 67.7 | 37.8 |
| NC(Cc1ccc(Cl)cc1Cl)CN1CCC(C(=O)c2ccccc2)CC1 (stereo not shown) |  |  | 15.3 | 34.7 |
| NC(Cc1ccc(Cl)cc1)CN1CCC(C(=O)c2ccccc2)CC1 (stereo not shown) |  |  | 38.9 | 50 |
| N[C@H](Cc1ccccc1)CN1CCC(C(=O)c2ccccc2)CC1 |  |  | 11.2 | 16.9 |
| NC(Cc1ccccc1)CN1CCC(C(=O)c2ccccc2)CC1 (stereo not shown) |  |  | 33.6 | 34 |
| N[C@@H](Cc1ccccc1)CN1CCC(C(=O)c2ccccc2)CC1 |  |  | 39.8 | 33.3 |
| N[C@@H](Cc1ccccc1)CN1CCC(C(=O)Cc2ccccc2)CC1 |  |  | 43.1 | 21.4 |
| N[C@@H](Cc1ccccc1)CN1CCC(C(=O)c2ccc(Cl)cc2)CC1 |  |  | 61 | 53.6 |
| N[C@@H](Cc1ccccc1)CN1CCC(C(=O)c2ccc(F)cc2)CC1 |  |  | 66.7 | 61.1 |
| N[C@@H](Cc1ccccc1)CN1CCC(C(=O)c2ccc(Cl)c(Cl)c2)CC1 |  |  | 60.8 | 56.6 |
| NC(Cc1ccc(Cl)cc1)CN1CCC(C(=O)c2ccc(Cl)cc2)CC1 (stereo not shown) |  |  | 23.5 | 34.9 |
| NC(Cc1ccc(Cl)cc1)CN1CCC(C(=O)c2ccc(F)cc2)CC1 (stereo not shown) |  |  | 31.1 | 48.5 |
| NC(Cc1ccc(Cl)cc1)CN1CCC(C(=O)c2ccc(Cl)c(Cl)c2)CC1 (stereo not shown) |  |  | 24.7 | 51.7 |
| NC(Cc1ccc(Cl)c(Cl)c1)CN1CCC(C(=O)c2ccccc2)CC1 (stereo not shown) |  |  | 10.8 | 39.6 |
| NC(Cc1ccc(Cl)c(Cl)c1)CN1CCC(C(=O)c2ccc(Cl)c(Cl)c2)CC1 (stereo not shown) |  |  | 10.7 | 47.2 |
| COc1ccc(C(=O)C2CCN(C[C@@H](N)Cc3ccccc3)CC2)cc1 |  |  | 49.1 | 39.8 |
| COc1ccc(C(=O)C2CCN(CC(N)Cc3ccc(Cl)cc3)CC2)cc1 (stereo not shown) |  |  | 19.5 | 31 |
| N[C@@H](Cc1ccccc1)CN1CCC(C(=O)c2cccc(Cl)c2)CC1 |  |  | 82.9 | 73 |
| NC(Cc1ccc(Cl)cc1)CN1CCC(C(=O)c2cccc(Cl)c2)CC1 (stereo not shown) |  |  | 34.5 | 41.6 |
| CC(C)(C)c1ccc(C(=O)C2CCN(C[C@@H](N)Cc3ccccc3)CC2)cc1 |  |  | 66.2 | 43.1 |

| Structure (SMILES) | IC50 (sigma-1 receptor) [nM] | inhibition at 0.01 µM (sigma-2 receptor; [1]) [%] | inhibition at 0.01 µM (sigma-1 receptor) [%] | inhibition at 0.01 µM (sigma-2 receptor; [2]) [%] |
| --- | --- | --- | --- | --- |
| CC(C)(C)c1ccc(CC(N)CN2CCC(C(=O)c3ccccc3)CC2)cc1 (stereo not shown) |  |  | 47.4 | 30 |
| NC(CCN1CCC(Cc2ccccc2)CC1)c1ccccc1 (stereo not shown) |  |  | 25.5 | 39.7 |
| NC(CCCN1CCCCCC1)c1ccccc1 (stereo not shown) |  |  | 7.1 | 21.6 |
| NC(CCCCN1CCCCCC1)c1ccccc1 (stereo not shown) |  |  | 9.3 | 32.5 |
| Clc1ccc(CCNC(CCN2CCC(Cc3ccccc3)CC2)c2ccccc2)cc1Cl (stereo not shown) |  |  | 28.8 | 22.6 |
| O=CNC(CCN1CCC(Cc2ccccc2)CC1)c1ccccc1 (stereo not shown) |  |  | 28.2 | 26.3 |
| CNC(CCN1CCC(Cc2ccccc2)CC1)c1ccccc1 (stereo not shown) |  |  | 36.3 | 54.1 |
| CN(C=O)C(CCN1CCC(Cc2ccccc2)CC1)c1ccccc1 (stereo not shown) |  |  | -2 | 26.4 |
| CN(C)C(CCN1CCC(Cc2ccccc2)CC1)c1ccccc1 (stereo not shown) |  |  | 20.3 | 57.7 |
| O=S(=O)(NC(CCN1CCC(Cc2ccccc2)CC1)c1ccccc1)c1ccccc1 (stereo not shown) |  |  | 35.6 | 11.4 |
| O=[N+]([O-])c1ccc(S(=O)(=O)NC(CCN2CCC(Cc3ccccc3)CC2)c2ccccc2)c([N+](=O)[O-])c1 (stereo not shown) |  |  | 5.7 | 40.6 |
| O=[N+]([O-])c1cccc(S(=O)(=O)NC(CCN2CCC(Cc3ccccc3)CC2)c2ccccc2)c1 (stereo not shown) |  |  | 45.7 | 25.7 |
| O=[N+]([O-])c1ccccc1S(=O)(=O)NC(CCN1CCC(Cc2ccccc2)CC1)c1ccccc1 (stereo not shown) |  |  | 31.6 | 3.1 |
| O=C(NC(CCN1CCC(Cc2ccccc2)CC1)c1ccccc1)c1ccccc1 (stereo not shown) |  |  | 44.3 | 5.2 |
| NC(CCN1CCC(C(=O)c2ccccc2)CC1)c1ccccc1 (stereo not shown) |  |  | 13.7 | 48.3 |
| NC(CCN1CCC(C(=O)c2ccc(F)cc2)CC1)c1ccccc1 (stereo not shown) |  |  | -1.9 | 57.3 |
| NC(CCN1CCC(C(=O)Cc2ccccc2)CC1)c1ccccc1 (stereo not shown) |  |  | 2.2 | 28.7 |
| CC(C)(C)c1ccc(CC(N)CCN2CCC(Cc3ccccc3)CC2)cc1 (stereo not shown) |  |  | 3.7 | 24.3 |
| CNC(CCN1CCC(C(=O)c2ccc(F)cc2)CC1)c1ccccc1 (stereo not shown) |  |  | 25.2 | 50.5 |
| COc1ccc(C(=O)C2CCN(CCC(N)c3ccccc3)CC2)cc1 (stereo not shown) |  |  | 3.2 | 30.9 |
| NC(CCN1CCC(C(=O)c2ccc(Cl)cc2)CC1)c1ccccc1 (stereo not shown) |  |  | 7.9 | 43.7 |
